Patent publication US11129386B2, “Microbiocidal quinoline (thio)carboxamide derivatives” (SYNGENTA PARTICIPATIONS AG, priority 2017, dated 2021)

How the values were obtained:
[1] = system: Botryotinia fuckeliana (Botrytis cinerea); assay: Botryotinia fuckeliana (Botrytis cinerea)/liquid culture (Gray mould); type: cell-based; details: liquid culture, growth inhibition photometrically 3-4 days after application, compared to untreated control
[2] = system: Glomerella lagenarium (Colletotrichum lagenarium); assay: Glomerella lagenarium (Colletotrichum lagenarium)/liquid culture (Anthracnose); type: cell-based; details: Colletotrichum orbiculare, 72 h, liquid culture, growth inhibition photometrically 3-4 days after application, compared to untreated control
Fusarium culmorum = assay: microbe, parasite or virus in culture; type: cell-based; details: read-out: control of Fusarium culmorum
[3] = system: Magnaporthe grisea (Pyricularia oryzae); assay: microbe, parasite or virus in culture; type: cell-based; details: read-out: control of Magnaporthe grisea

Row | Structure (SMILES) | inhibition of growth at 20 ppm [1] [%] | inhibition of growth at 20 ppm [2] [%] | inhibition of growth at 20 ppm (Fusarium culmorum) [%] | inhibition of growth at 20 ppm [3] [%] | melting point [°C]
1 | C=C(Cl)CC(C)(CC1CCCCC1)C(=O)Nc1cnc2c(F)cccc2c1 (centres unmarked) [Compound E12] | ≥ 80 | ≥ 80 | ≥ 80 | ≥ 80 | –
2 | CC1(CC(C)(CC(F)(F)F)C(=O)Nc2cnc3c(F)cccc3c2)CC1 (centres unmarked) [Compound E1, 4,4,4-trifluoro-N-(8-fluoro-3-quinolyl)-2-methyl-2-[(1-methylcyclopropyl)methyl]butanamide] | ≥ 80 | ≥ 80 | ≥ 80 | ≥ 80 | 60 to 70
3 | C=CCC(C)(CC(C)C)C(=O)Nc1cnc2c(F)cccc2c1 (centres unmarked) [Compound E7] | ≥ 80 | ≥ 80 | ≥ 80 | ≥ 80 | –
4 | CC(CC1CCCCC1)C(=O)Nc1cnc2c(F)cccc2c1 (centres unmarked) [Compound E11] | ≥ 80 | ≥ 80 | ≥ 80 | ≥ 80 | 179 to 181
5 | CC(C)=C(C)CC(C)(CC(C)C)C(=O)Nc1cnc2c(F)cccc2c1 (centres unmarked) [Compound E3] | ≥ 80 | ≥ 80 | ≥ 80 | ≥ 80 | –
6 | C/C=C(\C)CC(C)(CC(C)C)C(=O)Nc1cnc2c(F)cccc2c1 (centres unmarked) [Compound E2] | ≥ 80 | ≥ 80 | ≥ 80 | ≥ 80 | 135 to 137
7 | CC(C)CC(C)(CC1CC1)C(=O)Nc1cnc2c(F)cccc2c1 (centres unmarked) [Compound E5] | ≥ 80 | ≥ 80 | ≥ 80 | ≥ 80 | –
8 | CC(CC(F)(F)F)C(=O)Nc1cnc2c(F)cccc2c1 (centres unmarked) [Compound E14] | ≥ 80 | ≥ 80 | ≥ 80 | – | –
9 | C=C(C)CC(C)C(=O)Nc1cnc2c(F)cccc2c1 (centres unmarked) [Compound E9] | ≥ 80 | ≥ 80 | ≥ 80 | – | –
10 | CC(C)CC(C#N)(CC(C)C)C(=O)Nc1cnc2c(F)cccc2c1 [Compound E6] | ≥ 80 | ≥ 80 | ≥ 80 | ≥ 80 | –
11 | CC(C)=C(F)CC(C)(CC(C)C)C(=O)Nc1cnc2ccccc2c1 (centres unmarked) [Compound E4] | ≥ 80 | ≥ 80 | ≥ 80 | ≥ 80 | –
12 | CC(C)=C(F)CC(CC(C)C)C(=O)Nc1cnc2c(F)cccc2c1 (centres unmarked) [Compound E10] | ≥ 80 | ≥ 80 | ≥ 80 | ≥ 80 | 103 to 105
13 | Cc1c(NC(=O)C(C)CC(C)C)cnc2c(F)cccc12 (centres unmarked) [Compound E13] | ≥ 80 | ≥ 80 | ≥ 80 | – | –
